Eleven compounds from ChEMBL document CHEMBL5303304, “EUbOPEN Chemogenomics Library - IncuCyte” (2023) can be followed below.

Holding throughout (format): toxicity, cell-based
Data set [1] relates to HEK-293T. The experiment in a line: Incucyte cell viability with HEK293T. The settings on record: human, 10 µM, compound concentration 10 uM.
In data set [2] the test system is Fibroblast. The experiment in a line: Incucyte cell viability with human fibroblast. To be noted: 10 µM, compound concentration 10 uM.
In data set [3] the test system is U2OS. The experiment in a line: Incucyte cell viability with U2OS. To be noted: human, 10 µM, compound concentration 10 uM.
Note: unitless GR value; below 1 slowed growth and below 0 cell loss.

In the case of `CCOC(=O)c1cc2cc(-c3cc(C(=O)NCc4ccc(C(=O)O)cc4)nn3C)ccc2[nH]1` [BI 4394], the “Growth Rate” value was 0.13 in data set [1] (0 h, replicate number 1); 0.34 in data set [1] (0 h, replicate number 2); 0.88 in data set [1] (6 h, replicate number 1); 0.98 in data set [1] (12 h, replicate number 1); 0.93 in data set [1] (18 h, replicate number 1); 0.71 in data set [2] (6 h, replicate number 2). Moreover, the “Growth Rate” value was found to be 0.54 in data set [2] (12 h, replicate number 2); 0.7 in data set [2] (18 h, replicate number 2); 0.86 in data set [2] (24 h, replicate number 2); 0.89 in data set [3] (0 h, replicate number 1); 0.74 in data set [3] (6 h, replicate number 1); 0.96 in data set [3] (12 h, replicate number 2). In addition, the “Growth Rate” value in data set [3] (18 h, replicate number 2) is given as 0.99; in data set [3] (24 h, replicate number 1), 0.96.
For `O=c1ccc2c(OCCCCOc3ccccc3)c3ccoc3cc2o1`, the “Growth Rate” value in data set [1] (0 h, replicate number 1) is 0.49; in data set [1] (0 h, replicate number 2), 0.37; in data set [2] (12 h, replicate number 2) it was 0.95; in data set [2] (24 h, replicate number 1), 0.92; in data set [3] (0 h, replicate number 1), 0.26; in data set [3] (6 h, replicate number 1), 0.73. Further, the “Growth Rate” value in data set [3] (6 h, replicate number 2) is listed as 0.99; in data set [3] (18 h, replicate number 1), 0.99; in data set [3] (24 h, replicate number 1), 0.92.
`COCCNc1nc2ccc(C#CC3(O)CCCCC3)cc2n1-c1ccnc(N)n1`: the “Growth Rate” value is given as 0.37 in data set [1] (6 h, replicate number 1); 1 in data set [1] (12 h, replicate number 2); 0.96 in data set [1] (18 h, replicate number 2); 0.84 in data set [1] (24 h, replicate number 2); -0.48 in data set [2] (6 h, replicate number 1); -1 in data set [2] (6 h, replicate number 2). Moreover, the “Growth Rate” value in data set [2] (12 h, replicate number 1) is given as -1; in data set [2] (12 h, replicate number 2), -0.26; in data set [2] (18 h, replicate number 1), 0.24; in data set [2] (18 h, replicate number 2), 0.28; in data set [2] (24 h, replicate number 1) it was 0.3; in data set [2] (24 h, replicate number 2), 0.18. In addition, the “Growth Rate” value in data set [3] (6 h, replicate number 1) is 0.44; in data set [3] (6 h, replicate number 2), 0.8; in data set [3] (12 h, replicate number 1) it was 0.77; in data set [3] (12 h, replicate number 2) it was 0.69; in data set [3] (18 h, replicate number 1), 0.85; in data set [3] (18 h, replicate number 2), 0.73. Further, the “Growth Rate” value in data set [3] (24 h, replicate number 1) amounted to 0.92; in data set [3] (24 h, replicate number 2) it was 0.78.
For the compound `c1ccc2c(c1)SCc1c-2[nH]c2ccccc12`, the “Growth Rate” value was -0.95 in data set [1] (6 h, replicate number 1); -0.96 in data set [1] (6 h, replicate number 2); -0.76 in data set [1] (12 h, replicate number 1); -0.7 in data set [1] (12 h, replicate number 2); -0.53 in data set [1] (18 h, replicate number 1); -0.49 in data set [1] (18 h, replicate number 2). The “Growth Rate” value in data set [1] (24 h, replicate number 1) is listed as -0.37; in data set [1] (24 h, replicate number 2), -0.38; in data set [2] (0 h, replicate number 1), -1; in data set [2] (6 h, replicate number 1), -0.99; in data set [2] (6 h, replicate number 2) it was -1; in data set [2] (12 h, replicate number 1), -0.96. In addition, the “Growth Rate” value in data set [2] (12 h, replicate number 2) is reported as -0.98; in data set [2] (18 h, replicate number 1), -0.86; in data set [2] (18 h, replicate number 2), -0.94; in data set [2] (24 h, replicate number 1) it was -0.75; in data set [2] (24 h, replicate number 2) it was -0.84; in data set [3] (0 h, replicate number 1) it was -0.33. In addition, the “Growth Rate” value in data set [3] (6 h, replicate number 1) is reported as -0.4; in data set [3] (6 h, replicate number 2), -0.66; in data set [3] (12 h, replicate number 1) it was -0.65; in data set [3] (12 h, replicate number 2), -0.52; in data set [3] (18 h, replicate number 1), -0.63; in data set [3] (18 h, replicate number 2), -0.49. Further, the “Growth Rate” value is -0.5 in data set [3] (24 h, replicate number 1) and -0.42 in data set [3] (24 h, replicate number 2).
For `CCN1C(=CC(C)=O)Sc2ccc(OC)cc21`, the “Growth Rate” value in data set [1] (0 h, replicate number 1) was determined as 0.95; in data set [1] (0 h, replicate number 2), 0.69; in data set [1] (6 h, replicate number 1), 0.07; in data set [1] (6 h, replicate number 2), 0.47; in data set [1] (12 h, replicate number 1), 0.47; in data set [1] (12 h, replicate number 2), 0.28. Besides, the “Growth Rate” value in data set [1] (18 h, replicate number 1) is on record as 0.25; in data set [1] (18 h, replicate number 2) it was 0.43; in data set [1] (24 h, replicate number 1), 0.2; in data set [1] (24 h, replicate number 2) it was 0.46; in data set [2] (0 h, replicate number 1) it was 0.98; in data set [2] (0 h, replicate number 2) it was 0.16. In addition, the “Growth Rate” value was 0.95 in data set [2] (6 h, replicate number 2) and 0.9 in data set [3] (12 h, replicate number 2).
Take `COc1cc(C(=O)N2CC[C@@H](O)[C@@H](N)C2)cc2nc(-c3cc4ccccc4n3CC3CC3)n(C)c12.Cl`: the “Growth Rate” value in data set [1] (6 h, replicate number 1) was 0.46; in data set [1] (6 h, replicate number 2) it was -0.12; in data set [1] (12 h, replicate number 1), 0.73; in data set [1] (12 h, replicate number 2) it was 0.39; in data set [1] (18 h, replicate number 1) it was 0.82; in data set [1] (18 h, replicate number 2), 0.3. In addition, the “Growth Rate” value was 0.58 in data set [1] (24 h, replicate number 1); 0.27 in data set [1] (24 h, replicate number 2); -1 in data set [2] (6 h, replicate number 1); -0.02 in data set [2] (6 h, replicate number 2); 0.16 in data set [2] (12 h, replicate number 2); 0.2 in data set [2] (18 h, replicate number 2). The “Growth Rate” value in data set [2] (24 h, replicate number 2) is given as 0.27; in data set [3] (0 h, replicate number 1) it was -0.93.
Take `CC(C)[C@@H]1CC[C@@H](C)C[C@@H]1P(=O)(c1ccccc1)c1ccccc1`: the “Growth Rate” value was 0.49 in data set [1] (0 h, replicate number 1); 0.56 in data set [1] (6 h, replicate number 2); 0.25 in data set [2] (0 h, replicate number 1); 0.92 in data set [2] (18 h, replicate number 2); 0.9 in data set [2] (24 h, replicate number 1); 0.44 in data set [3] (6 h, replicate number 1). The “Growth Rate” value in data set [3] (12 h, replicate number 1) came to 0.44; in data set [3] (12 h, replicate number 2), 0.96; in data set [3] (18 h, replicate number 1), 0.78; in data set [3] (24 h, replicate number 1), 0.74; in data set [3] (24 h, replicate number 2), 1.
With `CC[C@H](Nc1ncnc2[nH]cnc12)c1nc2cccc(F)c2c(=O)n1-c1ccccc1` [IDELALISIB], the “Growth Rate” value is 0.29 in data set [1] (6 h, replicate number 1); -0.34 in data set [1] (6 h, replicate number 2); 0.62 in data set [1] (12 h, replicate number 1); 0.12 in data set [1] (12 h, replicate number 2); 0.31 in data set [1] (18 h, replicate number 1); 0.29 in data set [1] (18 h, replicate number 2). The “Growth Rate” value in data set [1] (24 h, replicate number 1) was 0.38; in data set [1] (24 h, replicate number 2), 0.36; in data set [2] (0 h, replicate number 1) it was 0.15; in data set [2] (0 h, replicate number 2) it was -0.51; in data set [2] (6 h, replicate number 2), 0.25; in data set [2] (12 h, replicate number 2), 0.49. The “Growth Rate” value turned out to be 0.95 in data set [2] (18 h, replicate number 2); 0.92 in data set [2] (24 h, replicate number 1); 0.92 in data set [3] (6 h, replicate number 2); 0.94 in data set [3] (24 h, replicate number 2).
For `Cn1c(C2(NC(=O)c3ccc4c(C5CCCC5)c(-c5ncc(Br)cn5)n(C)c4c3)CCC2)nc2ccc(/C=C/C(=O)O)cc21` [DELEOBUVIR], the “Growth Rate” value in data set [1] (6 h, replicate number 2) worked out at 0.72; in data set [1] (12 h, replicate number 2), 0.88; in data set [1] (18 h, replicate number 1), 0.92; in data set [1] (18 h, replicate number 2), 0.88; in data set [1] (24 h, replicate number 1), 0.91; in data set [1] (24 h, replicate number 2), 0.85. The “Growth Rate” value is listed as -1 in data set [2] (0 h, replicate number 1); 0.98 in data set [2] (18 h, replicate number 1); 0.85 in data set [2] (24 h, replicate number 1); 0.31 in data set [3] (6 h, replicate number 1); 0.75 in data set [3] (6 h, replicate number 2); 0.44 in data set [3] (12 h, replicate number 1). Moreover, the “Growth Rate” value was found to be 0.92 in data set [3] (12 h, replicate number 2); 0.49 in data set [3] (18 h, replicate number 1); 0.7 in data set [3] (24 h, replicate number 1); 0.88 in data set [3] (24 h, replicate number 2).
On to `Cn1nc(-c2ccc(C(N)=O)cc2)c2ccccc2c1=O`, for which the “Growth Rate” value was found to be 0.11 in data set [1] (6 h, replicate number 1); 0.45 in data set [1] (6 h, replicate number 2); 0.75 in data set [1] (12 h, replicate number 1); 0.4 in data set [1] (12 h, replicate number 2); 0.73 in data set [1] (18 h, replicate number 1); 0.55 in data set [1] (18 h, replicate number 2). Besides, the “Growth Rate” value in data set [1] (24 h, replicate number 1) came to 0.79; in data set [1] (24 h, replicate number 2) it was 0.74; in data set [2] (6 h, replicate number 1) it was 0.25; in data set [2] (12 h, replicate number 1), 0.99; in data set [2] (12 h, replicate number 2), 0.65; in data set [2] (18 h, replicate number 1), 0.84. The “Growth Rate” value turned out to be 1 in data set [2] (24 h, replicate number 1); 0.98 in data set [3] (0 h, replicate number 2); 0.58 in data set [3] (6 h, replicate number 1); 0.8 in data set [3] (12 h, replicate number 1); 0.97 in data set [3] (12 h, replicate number 2); 0.93 in data set [3] (18 h, replicate number 1). Further, the “Growth Rate” value in data set [3] (24 h, replicate number 1) was determined as 0.96.
For the compound `O=C(Nc1ccc(N2CCC(C(=O)N3CCOCC3)CC2)cc1)c1cnc(Oc2ccccc2)nc1`, the “Growth Rate” value in data set [1] (0 h, replicate number 2) is -0.09; in data set [1] (6 h, replicate number 1), -0.02; in data set [1] (12 h, replicate number 1), 0.64; in data set [1] (18 h, replicate number 1), 0.92; in data set [1] (24 h, replicate number 1), 0.95; in data set [2] (0 h, replicate number 2) it was -0.91. For the same compound, the “Growth Rate” value in data set [2] (6 h, replicate number 1) amounted to 0.98; in data set [2] (12 h, replicate number 2), 0.75; in data set [2] (18 h, replicate number 1) it was 0.95; in data set [2] (18 h, replicate number 2), 0.87; in data set [2] (24 h, replicate number 1) it was 0.99; in data set [2] (24 h, replicate number 2), 0.78. The “Growth Rate” value in data set [3] (6 h, replicate number 1) came out at 0.96.
